Like-named read-outs stand apart in the source and are kept apart here.
Tests used:
[1] = tested on: naloxone precipitated withdrawal behaviors; assay: Naloxone precipitated withdrawal behaviors (Example 4); assay type: in vivo, rat; conditions: for naloxone precipitated withdrawal behaviors: 60 minute observation period, FIG. 5
Procedure: (§1) The withdrawal signs measured were: (1) abnormal posturing (an animal presses his abdomen and lower jaw against the floor of the cage); (2) exploration (an animal circles around the cage, thrusting its head in several directions and examining its surroundings); (3) jumping; (4) cleaning (grooming); (5) rearing (an animal stands on its hindpaws with the forepaws off the ground).
Withdrawal scores were measured by blinded observers in 10 minute blocks for 60 minutes immediately after naloxone precipitated withdrawal was initiated. The observations were pooled from 1-10 minutes, 11-20 minutes, 21-30 minutes, 31-40 minutes, 41-50 minutes, 51-60 minutes for each individual rat after naloxone administration, giving six time points. The average score (for each time point) for all animals within an experimental group was reported as the “total withdrawal score” in FIGS. 2A-2D.

[2] = Spontaneous opioid withdrawal induced weight loss (Example 5); assay type: in vivo, rat; conditions: FIG. 9
Procedure: Pathogen-free adult male Sprague-Dawley rats were used in all experiments. Rats (350-375 g at the time of arrival; Harlan Labs, Madison, Wis.) were housed in temperature (23±3° C.) and light (12:12 light:dark; lights on at 0700 hours) controlled rooms with standard rodent chow and water available ad libitum. All procedures were approved by the Institutional Animal Care and Use Committee at the University of Colorado at Boulder. Upon arrival male Sprague Dawley rats (300-400g) were housed individually and allowed to acclimatize to the animal colony telemetry room for one week. 5×90 minute sessions of handling by investigators were performed during the following week. Rats were anesthetized with isoflurane, and emitters for measuring core body temperature ([…], Sun River, Oreg.) were implanted in the peritoneal cavity. Gross motor movement was assessed by telemetry using the same emitters used for recording core body temperature. The emitter had to move for activity to be counted; thus, stationary movements such as grooming were not counted. Activity counts and core body temperature were measured every minute and movement averaged over 120 minutes was calculated (thereby smoothing the data). […] Body weights were recorded prior to each dosing session to allow for accurate dose calculations and to track the opioid induced weight loss (also occurred on days when no dosing was conducted).

[3] = tested on: nucleotide phosphodiesterase (PDE); conditions: non-selective PDE inhibitor; cited from earlier work
[4] = tested on: naloxone-induced behavioral withdrawal signs; assay: Naloxone-induced withdrawal behavior during microdialysis (Example 3); assay type: in vivo, rat; conditions: 7.5 mg/kg b.i.d. with morphine, vs PEG-saline vehicle and morphine, FIG. 4
Procedure: (§2) Dopamine release in the nucleus accumbens is thought to mediate the “reward” associated with drugs of abuse. […] After 3 baseline samples (20 minute inter-sample interval), morphine was administered to all rats. Dialysis samples were collected at 20 minute intervals for 180 minutes. To test behavioral withdrawal and reversal of morphine-induced dopamine, all rats were administered the opioid antagonist naloxone after the 60 minute sample time was completed.

[5] = tested on: dopamine release in the nucleus accumbens; assay: In vivo microdialysis of nucleus accumbens dopamine (Example 3); set-up: species or system rat
Procedure: as §2

[6] = assay type: in vivo, rat; conditions: normalized to weight at start of morphine
[7] = tested on: activated microglia; conditions: dose-dependent; cited from earlier work
[8] = administered systemically; cited from earlier work
[9] = Previous range-finding tolerability studies, intraperitoneal; assay type: in vivo; conditions: twice a day (bid) for multiple days
[10] = Pharmacokinetics and tissue distribution of ibudilast in rat; assay type: in vivo
Procedure: Ibudilast pharmacokinetics and distribution into plasma, muscle, brain, and spinal cord were assessed as follows.
(§3) Drug stability and concentration were validated by HPLC/MS/MS.
Pathogen-free adult male Sprague-Dawley rats (280-350 g; Harlan Labs) were used in all experiments. Rats were housed in temperature (23+/−3° C.) and light (12:12 light: dark; lights on at 0700 hr) controlled rooms with standard rodent chow and water available ad libitum. Behavioral testing was performed during the light cycle.
Calibration standards in plasma were prepared by diluting each 0.5 mg/ml stock 1 in 100 into rat plasma to 5000 ng/ml (5 μl+495 μl), and then diluted further to 2.29 ng/ml by 3-fold serial dilution with plasma. Standards were used as low, mid and high QC samples, respectively.
Calibration standards, QC and plasma study samples were prepared for HPLC injection by precipitating 25 μl of plasma with three volumes (75 μl) of ice cold acetonitrile containing 50 ng/ml diphenhydramine and 100 ng/ml dextromethorphan as the internal standards. Tissue study samples were prepared for HPLC injection by adding 1 μl of water per mg of tissue plus three volumes (relative to water) of ice cold acetonitrile containing 50 ng/ml diphenhydramine and 100 ng/ml dextromethorphan as the internal standards, then homogenizing with an electric homogenizer.

[11] = tested on: naloxone-precipitated morphine withdrawal syndrome; assay: Rat model of naloxone-precipitated morphine withdrawal, total withdrawal score (Example 2); assay type: in vivo
Procedure: as §3
Pathogen-free adult male Sprague-Dawley rats (280-350 g; Harlan Labs) were used in all experiments. Rats were housed in temperature (23[…]3° C.) and light (12:12 light: dark; lights on at 0700 hr) controlled rooms with standard rodent chow and water available ad libitum. Behavioral testing was performed during the light cycle. Approval of the Institutional Animal Care and Use Committee at University of Colorado was obtained for all procedures.
The schedule for morphine treatment (via subcutaneous injections) was as follows: Day 1: 5 mg/kg at 1000 hr, 5 mg/kg at 1300 hr, 5 mg/kg at 1700 hr; Day 2: 5 mg/kg at 1000 hr, 12.5 mg/kg at 1700 hr; Day 3: 15 mg/kg at 1000 hr; Day 4: 17.5 mg/kg at 1000 hr; Day 5: 5 mg/kg at 1000 hr, 17.5 mg/kg at 1200 hr.
as §1
Withdrawal scores were measured by blinded observers in 10 minute blocks for 60 minutes immediately after naloxone precipitated withdrawal was initiated. […]

SMILES: CC(C)C(=O)c1c(C(C)C)nn2ccccc12 [ibudilast, 2-methyl-1-(2-(1-methylethyl)pyrazolo(1,5-a)pyridin-3-yl)1-propanone]
- naloxone precipitated withdrawal behaviors ([1]; 2.5 mg/kg): dramatic reduction of naloxone precipitated withdrawal behaviors
- naloxone precipitated withdrawal behaviors ([1]; 7.5 mg/kg): dramatic reduction of naloxone precipitated withdrawal behaviors
- individual withdrawal behaviors ([1]; on an individual behavior basis): reductions in all behaviors except for rearing, exploration and wet dog shakes
- spontaneous opioid withdrawal induced weight loss ([2]; higher dose (7.5 mg/kg twice daily)): substantially attenuated weight loss
- spontaneous opioid withdrawal induced weight loss ([2]; lower dose (2.5 mg/kg twice daily)): only a trend towards improved weight change
- PDE inhibition profile [3]: most active against PDE-3, PDE-4, PDE-10, and PDE-11
- naloxone-induced behavioral withdrawal signs [4]: suppressed naloxone-induced behavioral withdrawal signs
- dopamine release into the nucleus accumbens in response to morphine ([5]; 7.5 mg/kg b.i.d. co-administered with morphine across 5 days, FIG. 3): suppressed release of dopamine into the nucleus accumbens in response to morphine
- basal levels of dopamine ([5]; 7.5 mg/kg b.i.d., baseline samples): did not decrease basal levels of dopamine
- morphine induced weight loss on day 7 ([6]; 2.5 mg/kg ibudilast): 16.6 ± 5.7 g
- morphine induced weight loss on day 7 ([6]; 7.5 mg/kg ibudilast): 13.3 ± 7.1 g
- production of inhibitory cytokine and neurotrophic factors [7]: enhanced the production of the inhibitory cytokine, IL-10, and additional neurotrophic factors
- production of pro-inflammatory mediators [7]: suppressed the production of nitric oxide (NO), reactive oxygen species, interleukin (IL)-1β, IL-6, and tumor necrosis factor (TNF)
- blood-brain barrier passage [8]: crosses the blood-brain barrier when administered systemically
- well-tolerated dose level [9]: up to 15 mg/kg
- plasma concentration profile ([10]; i.p. 5 mg/kg): declined from Cmax in a biphasic manner
- tissue distribution ([10]; i.p. 5 mg/kg, muscle, brain, spinal cord): well distributed to peripheral (e.g. muscle) and central (e.g. brain and spinal cord) tissues
- Cmax ([10]; male, Sprague-Dawley, plasma and CNS tissues (brain, spinal cord), ip, i.p. ~5 mg/kg, in 15% ethanol/saline, read-out: maximal concentration (Cmax) in plasma and CNS tissues): ~1000 ng/mL
- half-life ([10]; male, Sprague-Dawley, plasma, muscle, brain, spinal cord (all tissue compartments), ip, i.p. 5 mg/kg, all tissue compartments, read-out: elimination half-life): 1.67 to 2.32 h
- total withdrawal score ([11]; high dose 7.5 mg/kg i.p. bid, FIG. 2B, 2D): remarkably attenuated behavioral signs of withdrawal
- total withdrawal score ([11]; low dose 2.5 mg/kg i.p. bid, vs saline controls, FIG. 2C): no effect compared to saline controls
